≈ marks a conversion by molar mass, not a printed value. Each block holds one compound with its values, some of them ahead of it.
Key:
[1] = Equilibrium (intrinsic) solubility of the test article in formulation mixtures, 24h, LC/MS; settings: for solubility at 24 h: aqueous with cosolvent or surfactant or cyclodextrin, thermodynamic from solid
Description: (§3) This study was performed to determine the intrinsic solubility of the test article in a variety of formulation systems as detailed below.
(§4) This method measured equilibrium solubility after 24h incubation with the desired formulation mixture. The solubility of the test article in each formulation mixture was measured by comparison of the AUC of the LC/MS spectrum obtained by injection of the solution of the test article in the desired solvent to the AUC of a reference standard solution. […] The reference solution was made fresh for every time point. Data was then calculated to give % test article remaining as function of time.
(§5) 1) A stock solution of the active pharmaceutical ingredient (API) was prepared in a 1,4-dioxane at 10 mM. 2) Nineteen 200 μl portions of stock were dispensed into 19 clean 500 μl micro-centrifuge tubes and the solvent removed by a stream of nitrogen. The 19 tubes were marked with numbers 1-19. 3) Five 200 μl portions of stock were dispensed into 5 clean 200 μl micro-centrifuge tubes and the solvent removed by a stream of nitrogen; these tubes were marked: S1, S2, S3, S4 and S5 and were to be saved for quantization by LC/MS. 4) The vehicles were prepared on a w/w basis for co-solvents, and on a molar basis for salts. 5) 200 μL of each vehicle was introduced into the appropriate micro centrifuge tube 1-19, corresponding to that vehicle. The final concentration of API was 10 mM. These were the test samples. 6) The sample tubes 1-19 were sonicated for 30 min and then agitated for 24h. 7) The vessel was centrifuged and 50 μl of the supernatant was removed and diluted with 350 μl of acetonitrile for LC/MS analysis. These were the test samples. 8) Micro-centrifuge tubes S1-S5 were reconstituted immediately before analysis by adding 200 μl of acetonitrile and 200 μl od 1,4-dioxane to the tubes and sonicating for 30 min. These were the standards. 9) Before analysis all 24 tubes were centrifuged. 10) 50 μl of the clear supernatant from Sample tubes 1-19 was removed and diluted into 350 μl of acetonitrile for LC/MS analysis. 11) 100 μl of the clear supernatant from Standard tubes S1-S5 was removed and diluted into 300 μl of acetonitrile for LC/MS analysis.
(§6) 13) Quantization was based on comparison to the AUC from the stock solution and was relative.
(§7) A freshly prepared standard was used for each time point.

physchem = settings: 5% VitE-TPGS in normal saline, aqueous with cosolvent or surfactant or cyclodextrin, thermodynamic from solid
Description: as §3, §4, §5, §6, §7

HM cells = test: Cell viability of HM malignant mesothelioma cells, 48 h, crystal violet staining; format: cell-based
Description: (§1) Studies were performed to test the effects on cell viability of mesothelial (LP9) and malignant mesothelioma (HM) cells in culture when contacted with thiostrepton (TS) or TS diluted in Vitamin E-TPGS (VitE-TPGS, D-alpha-tocopherol polyethylene glycol 1000 succinate).
(§2) Indicated cell lines were plated into 96 well plates and allowed to adhere overnight. The following day test compounds were serially diluted in duplicate wells onto cells in complete tissue culture media. VitE-TPGS was serially diluted from a starting concentration of 0.025% (w/v) in 0.9% NaCl and added to LP9 or HM cells (FIG. 1). TS, dissolved in DMSO, was diluted to a starting concentration of 20 μM into cell culture media and serially diluted or diluted from a 1.5 mM TS/DMSO/5% VitE-TPGS (33 mM)/0.9% NaCl solution to a starting concentration of 20 μM TS/0.06% VitE-TPGS and serially diluted onto LP9 or HM cells (FIG. 2). Cells were incubated with test compounds for 48 hours before determining cell number using an indirect readout of cell viability by staining residual cells with crystal violet. The inhibitory concentration (IC50) in which 50% of the cells are not viable, was determined for tested compounds.

LP9 cells = test: Cell viability of LP9 mesothelial cells, 48 h, crystal violet staining; format: cell-based; settings: VitE-TPGS (w/v) in 0.9% NaCl
Description: as §1, §2

Compound: C=C(NC(=O)C(=C)NC(=O)c1csc(C2=N[C@@H]3c4csc(n4)[C@H]4NC(=O)c5csc(n5)[C@H]([C@](C)(O)[C@@H](C)O)NC(=O)[C@H]5CSC(=N5)/C(=C/C)NC(=O)[C@H]([C@@H](C)O)NC(=O)c5csc(n5)[C@]3(CC2)NC(=O)[C@H](C)NC(=O)C(=C)NC(=O)[C@H](C)NC(=O)[C@H]([C@@H](C)CC)N[C@@H]2C=Cc3c([C@H](C)O)cc(nc3[C@H]2O)C(=O)O[C@@H]4C)n1)C(N)=O [TS, Thiostrepton]
solubility at 24 h ([1]; 1% polyacrylic acid (450,000 amw) in normal saline): 130 µM (≈ 216 µg/mL) | solubility at 24 h ([1]; 1% polyvinylalcohol (61,000 amw) in normal saline): 200 µM (≈ 333 µg/mL) | Solubility (in words) ([1]; 1,4-dioxane and chloroform): freely soluble | solubility at 24 h ([1]; 2% Tween 80 in normal saline): 220 µM (≈ 366 µg/mL) | solubility at 24 h ([1]; 10% Cremophore in normal saline): 1140 µM (≈ 1900 µg/mL) | solubility at 24 h ([1]; 10% Solutol HS 15 in normal saline): 520 µM (≈ 866 µg/mL) | solubility at 24 h ([1]; 10% capmul in normal saline): 50 µM (≈ 83.2 µg/mL) | solubility at 24 h ([1]; 10% meglumine in normal saline): 200 µM (≈ 333 µg/mL) | solubility at 24 h ([1]; 20% Captisol in normal saline): 380 µM (≈ 633 µg/mL) | solubility at 24 h ([1]; 20% Gelucire 44/14 in normal saline): 1170 µM (≈ 1950 µg/mL) | solubility at 24 h ([1]; 20% Labrafil 1944CS in normal saline): 490 µM (≈ 816 µg/mL) | solubility at 24 h ([1]; 20% Peceol in normal saline): 300 µM (≈ 499 µg/mL) | solubility at 24 h ([1]; 20% hydroxypropyl-beta-cyclodextrin in normal saline): 440 µM (≈ 733 µg/mL) | solubility at 24 h ([1]; 20% poloxamer 188 in normal saline): 210 µM (≈ 350 µg/mL) | solubility at 24 h ([1]; 20% transcutol in normal saline): 660 µM (≈ 1100 µg/mL) | solubility at 24 h ([1]; 30% Capryol 90 in normal saline): 1470 µM (≈ 2450 µg/mL) | solubility at 24 h ([1]; 30% Labrafac PG in normal saline): 380 µM (≈ 633 µg/mL) | solubility at 24 h ([1]; 30% Labrasol in normal saline): 150 µM (≈ 250 µg/mL) | solubility at 24 h ([1]; 30% polyethylene glycol 300 in normal saline): 320 µM (≈ 533 µg/mL) | Solubility (in words) ([1]; aqueous solutions and a variety of organic solvents): fairly low solubility | solubility at 24 h (physchem): 1740 µM (≈ 2900 µg/mL) | Sensitivity of HM cells compared to LP9 cells (HM cells; HM vs LP9 cells): more sensitive

IC50 (HM cells; HM cells, VitE-TPGS (w/v) in 0.9% NaCl): 0.0006%
Compound: D-a-tocopheryl polyethylene glycol 1000 succinate [VitE-TPGS]
IC50 (LP9 cells): 0.0014%

Source: patent US20220080025A1, “VITAMIN E AND CANCER THERAPEUTIC COMPOSITIONS AND METHODS” (University of Vermont and State Agricultural College, priority 2019, published 2022)
